From patent publication US11230540B2, “Substituted triazole derivatives and uses thereof” (Bayer Pharma Aktiengesellschaft, priority 2017, dated 2022)

Assays:
[1] = biological target: T1, human V2 receptor (Homo sapiens, UniProt P30518); test: Cellular in vitro assay for vasopressin receptor activity, V2 receptor cell line (CRE-luciferase); type: cell-based; conditions: CHO cell line transfected with human V2 receptor; [Arg8]-vasopressin at EC50 concentration; read-out: IC50 hV2
T1 construct: expressed in transfected cells; host or cells: CHO K1 (Chinese hamster ovary) expressing firefly luciferase under a CRE-responsive promoter
T1 sequence (P30518 whole entry): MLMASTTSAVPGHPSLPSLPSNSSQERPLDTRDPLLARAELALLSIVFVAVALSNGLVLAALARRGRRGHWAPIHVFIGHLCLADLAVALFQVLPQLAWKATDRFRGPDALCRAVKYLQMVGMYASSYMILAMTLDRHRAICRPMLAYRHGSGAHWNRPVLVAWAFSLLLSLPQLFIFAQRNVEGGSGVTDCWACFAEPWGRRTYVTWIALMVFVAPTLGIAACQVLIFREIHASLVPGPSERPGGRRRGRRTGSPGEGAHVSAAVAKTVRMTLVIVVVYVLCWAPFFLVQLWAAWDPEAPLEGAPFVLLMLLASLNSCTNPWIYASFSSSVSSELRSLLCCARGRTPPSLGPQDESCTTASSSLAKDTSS
Method: (§1) B-1. Cellular In Vitro Assay for Determining Vasopressin Receptor Activity
(§2) The identification of agonists and antagonists of the V1a and V2 vasopressin receptors from humans, rats and dogs as well as the quantification of the activity of the compounds of the invention is carried out using recombinant cell lines. These cell lines originally derive from a hamster's ovary epithelial cell (Chinese Hamster Ovary, CHO K1, ATCC: American Type Culture Collection, Manassas, Va. 20108, USA). The test cell lines constitutively express the human, rat or dog V1a or V2 receptors. In case of the […] V1a receptors, cells are also stably transfected with a modified form of the calcium-sensitive photoproteins aequorin (human and rat V1a) or obelin (dog V1a), which, after reconstitution with the cofactor coelenterazine, emit light when there are increases in free calcium concentrations [Rizzuto R, Simpson A W, Brini M, Pozzan T, Nature 358, 325-327 (1992); Illarionov B A, Bondar V S, Illarionova V A, Vysotski E S, Gene 153 (2), 273-274 (1995)]. The resulting vasopressin receptor cells react to stimulation of the recombinantly expressed V1a receptors by intracellular release of calcium ions, which can be quantified by the resulting photoprotein luminescence. The Gs-coupled V2 receptors are stably transfected into cell lines expressing the gene for firefly luciferase under control of a CRE-responsible promoter. Activation of V2 receptors induces the activation of the CRE-responsive promoter via cAMP increase, thereby inducing the expression of firefly luciferase. The light emitted by photoproteins of V1a cell lines as well as the light emitted by firefly luciferase of V2 cell lines corresponds to the activation or inhibition of the respective vasopressin receptor. The bioluminescence of the cell lines is detected using a suitable luminometer [Milligan G, Marshall F, Rees S, Trends in Pharmacological Sciences 17, 235-237 (1996)].
Vasopressin V2 Receptor Cell Lines:
On the day before the assay, the cells are plated out in culture medium (DMEM/F12, 2% FCS, 2 mM glutamine, 10 mM HEPES) in 384-well microtiter plates and kept in a cell incubator (96% humidity, 5% v/v CO2, 37° C.). On the day of the assay, test compounds in various concentrations and the agonist [Arg^8]-vasopressin at EC50 concentration are added together to the wells, and plates are incubated for 3 hours in a cell incubator. Upon addition of the cell lysis reagent Triton™ and the substrate luciferin, luminescence of firefly luciferase is measured in a luminometer.
(§3) Table 1A below lists individual IC50 values for the compounds of the invention (including racemic mixtures as well as separated enantiomers) that were obtained from cell lines transfected with the human V1a or V2 receptor: […]

[2] = biological target: T2, human V1a receptor (Homo sapiens, UniProt P37288); test: Cellular in vitro assay for vasopressin receptor activity, V1a receptor cell line (aequorin luminescence); type: cell-based; conditions: for IC50: CHO cell line transfected with human V1a receptor, [Arg8]-vasopressin at EC50 concentration, read-out: IC50 hV1a; for ratio IC50 hV2/hV1a: selectivity ratio of the IC50 values hV2/hV1a
T2 construct: expressed in transfected cells; host or cells: CHO K1 (Chinese hamster ovary), also stably transfected with a modified aequorin
T2 sequence (P37288 whole entry): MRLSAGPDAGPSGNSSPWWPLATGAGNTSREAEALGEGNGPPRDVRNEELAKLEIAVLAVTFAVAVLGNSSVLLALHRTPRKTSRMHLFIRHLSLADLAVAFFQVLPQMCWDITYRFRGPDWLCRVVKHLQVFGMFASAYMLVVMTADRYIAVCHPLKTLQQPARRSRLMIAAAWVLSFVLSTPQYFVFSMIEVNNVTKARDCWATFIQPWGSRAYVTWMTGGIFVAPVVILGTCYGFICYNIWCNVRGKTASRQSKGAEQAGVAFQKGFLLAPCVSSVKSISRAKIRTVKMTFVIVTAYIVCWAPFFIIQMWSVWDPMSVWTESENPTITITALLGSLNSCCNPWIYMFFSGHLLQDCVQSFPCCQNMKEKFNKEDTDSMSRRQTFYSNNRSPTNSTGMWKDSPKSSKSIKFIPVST
Method: as §1, §2
Vasopressin V1a Receptor Cell Lines:
On the day before the assay, the cells are plated out in culture medium (DMEM/F12, 2% FCS, 2 mM glutamine, 10 mM HEPES, 5 μg/ml coelenterazine) in 384-well microtiter plates and kept in a cell incubator (96% humidity, 5% v/v CO2, 37° C.). On the day of the assay, test compounds in various concentrations are placed for 10 minutes in the wells of the microtiter plate before the agonist [Arg^8]-vasopressin at EC50 concentration is added. The resulting light signal is measured immediately in a luminometer.
as §3

IC50 [1] [nM]	IC50 [2] [nM]	ratio IC50 hV2/hV1a [2]	Structure (SMILES)
148	2.9	51.1	NNC(=O)c1nc(Cn2nc(-c3ccc(Cl)cc3)n(C[C@H](O)C(F)(F)F)c2=O)nn1-c1cnccc1Cl [Example 9, 3-({3-(4-Chlorophenyl)-5-oxo-4-[(2S)-3,3,3-trifluoro-2-hydroxypropyl]-4,5-dihydro-1H-1,2,4-triazol-1-yl}methyl)-1-(4-chloropyridin-3-yl)-1H-1,2,4-triazole-5-carbohydrazide]
94.5	2.15	44.0	NNC(=O)c1nc(Cn2nc(-c3ccc(Cl)cc3)n(C[C@H](O)C(F)(F)F)c2=O)nn1-c1ncccc1Cl [Example 10, 3-({3-(4-Chlorophenyl)-5-oxo-4-[(2S)-3,3,3-trifluoro-2-hydroxypropyl]-4,5-dihydro-1H-1,2,4-triazol-1-yl}methyl)-1-(3-chloropyridin-2-yl)-1H-1,2,4-triazole-5-carbohydrazide]
1640	9.1	180.2	NNC(=O)c1nc(Cn2nc(-c3ccc(Cl)cc3)n(C[C@H](O)C(F)(F)F)c2=O)nn1-c1ncccc1OC(F)(F)F [Example 11, 3-({3-(4-Chlorophenyl)-5-oxo-4-[(2S)-3,3,3-trifluoro-2-hydroxypropyl]-4,5-dihydro-1H-1,2,4-triazol-1-yl}methyl)-1-[3-(trifluoromethoxy)pyridin-2-yl]-1H-1,2,4-triazole-5-carbohydrazide]
22.2	1.19	18.7	O=C(c1nc(Cn2nc(-c3ccc(Cl)cc3)n(C[C@H](O)C(F)(F)F)c2=O)nn1-c1ccccc1Cl)N1CC(O)(C(F)(F)F)C1 [Example 12, 5-(4-Chlorophenyl)-2-{[1-(2-chlorophenyl)-5-{[3-hydroxy-3-(trifluoromethyl)azetidin-1-yl]carbonyl}-1H-1,2,4-triazol-3-yl]methyl}-4-[(2S)-3,3,3-trifluoro-2-hydroxypropyl]-2,4-dihydro-3H-1,2,4-triazol-3-one]
183	13	–	CC(C)(O)CNC(=O)c1nc(Cn2nc(-c3ccc(Cl)cc3)n(C[C@H](O)C(F)(F)F)c2=O)nn1-c1cccnc1Cl [Example 15, 3-({3-(4-Chlorophenyl)-5-oxo-4-[(2S)-3,3,3-trifluoro-2-hydroxypropyl]-4,5-dihydro-1H-1,2,4-triazol-1-yl}methyl)-1-(2-chloropyridin-3-yl)-N-(2-hydroxy-2-methylpropyl)-1H-1,2,4-triazole-5-carboxamide]
40.7	1.23	33.1	O=C(NCC(F)(F)F)c1nc(Cn2nc(-c3ccc(Cl)cc3)n(C[C@H](O)C(F)(F)F)c2=O)nn1-c1ncccc1Br [Example 16, 1-(3-Bromopyridin-2-yl)-3-({3-(4-chlorophenyl)-5-oxo-4-[(2S)-3,3,3-trifluoro-2-hydroxypropyl]-4,5-dihydro-1H-1,2,4-triazol-1-yl}methyl)-N-(2,2,2-trifluoroethyl)-1H-1,2,4-triazole-5-carboxamide]
28.3	0.71	40.2	O=C(NCC(F)(F)F)c1nc(Cn2nc(-c3ccc(Cl)cc3)n(C[C@H](O)C(F)(F)F)c2=O)nn1-c1ncccc1Cl [Example 17, 3-({3-(4-Chlorophenyl)-5-oxo-4-[(2S)-3,3,3-trifluoro-2-hydroxypropyl]-4,5-dihydro-1H-1,2,4-triazol-1-yl}methyl)-1-(3-chloropyridin-2-yl)-N-(2,2,2-trifluoroethyl)-1H-1,2,4-triazole-5-carboxamide]
64	13.5	4.7	O=C(NCC(F)(F)F)c1nc(Cn2nc(-c3ccc(Cl)cc3)n(C[C@H](O)C(F)(F)F)c2=O)nn1-c1cccnc1Cl [Example 18, 3-({3-(4-Chlorophenyl)-5-oxo-4-[(2S)-3,3,3-trifluoro-2-hydroxypropyl]-4,5-dihydro-1H-1,2,4-triazol-1-yl}methyl)-1-(2-chloropyridin-3-yl)-N-(2,2,2-trifluoroethyl)-1H-1,2,4-triazole-5-carboxamide]
21.5	0.47	45.7	O=C(NCC(F)(F)F)c1nc(Cn2nc(-c3ccc(Cl)cc3)n(C[C@H](O)C(F)(F)F)c2=O)nn1-c1cnccc1Cl [Example 19, 3-({3-(4-Chlorophenyl)-5-oxo-4-[(2S)-3,3,3-trifluoro-2-hydroxypropyl]-4,5-dihydro-1H-1,2,4-triazol-1-yl}methyl)-1-(4-chloropyridin-3-yl)-N-(2,2,2-trifluoroethyl)-1H-1,2,4-triazole-5-carboxamide]
104	6.95	14.9	COc1cccnc1-n1nc(Cn2nc(-c3ccc(Cl)cc3)n(C[C@H](O)C(F)(F)F)c2=O)nc1C(=O)NCC(C)(C)N [Example 20, N-(2-Amino-2-methylpropyl)-3-({3-(4-chlorophenyl)-5-oxo-4-[(2S)-3,3,3-trifluoro-2-hydroxypropyl]-4,5-dihydro-1H-1,2,4-triazol-1-yl}methyl)-1-(3-methoxypyridin-2-yl)-1H-1,2,4-triazole-5-carboxamide]
22.5	6.05	3.7	CNC(=O)c1nc(Cn2nc(-c3ccc(Cl)cc3)n(C[C@H](O)C(F)(F)F)c2=O)nn1-c1ncccc1OC [Example 21, 3-({3-(4-Chlorophenyl)-5-oxo-4-[(2S)-3,3,3-trifluoro-2-hydroxypropyl]-4,5-dihydro-1H-1,2,4-triazol-1-yl}methyl)-1-(3-methoxypyridin-2-yl)-N-methyl-1H-1,2,4-triazole-5-carboxamide]
730	75	–	O=C(c1nc(Cn2nc(-c3ccc(Cl)cc3)n(C[C@H](O)C(F)(F)F)c2=O)nn1CCC(F)(F)F)N1CCOCC1 [Example 26, 5-(4-Chlorophenyl)-2-{[5-(morpholin-4-ylcarbonyl)-1-(3,3,3-trifluoropropyl)-1H-1,2,4-triazol-3-yl]methyl}-4-[(2S)-3,3,3-trifluoro-2-hydroxypropyl]-2,4-dihydro-3H-1,2,4-triazol-3-one]
106	4.15	25.5	CC(C)(C)NC(=O)c1nc(Cn2nc(-c3ccc(Cl)cc3)n(C[C@H](O)C(F)(F)F)c2=O)nn1-c1ncccc1Cl [Example 27, N-tert-Butyl-3-({3-(4-chlorophenyl)-5-oxo-4-[(2S)-3,3,3-trifluoro-2-hydroxypropyl]-4,5-dihydro-1H-1,2,4-triazol-1-yl}methyl)-1-(3-chloropyridin-2-yl)-1H-1,2,4-triazole-5-carboxamide]
26	2.95	8.8	CC(C)(C)NC(=O)c1nc(Cn2nc(-c3ccc(Cl)cc3)n(C[C@H](O)C(F)(F)F)c2=O)nn1-c1ccccc1Cl [Example 28, N-tert-Butyl-1-(2-chlorophenyl)-3-({3-(4-chlorophenyl)-5-oxo-4-[(2S)-3,3,3-trifluoro-2-hydroxypropyl]-4,5-dihydro-1H-1,2,4-triazol-1-yl}methyl)-1H-1,2,4-triazole-5-carboxamide]
635	19.5	32.6	CC(C)(C)NC(=O)c1nc(Cn2nc(-c3ccc(Cl)cc3)n(C[C@H](O)C(F)(F)F)c2=O)nn1-c1ncccc1OC(F)(F)F [Example 29, N-tert-Butyl-3-({3-(4-chlorophenyl)-5-oxo-4-[(2S)-3,3,3-trifluoro-2-hydroxypropyl]-4,5-dihydro-1H-1,2,4-triazol-1-yl}methyl)-1-[3-(trifluoromethoxy)pyridin-2-yl]-1H-1,2,4-triazole-5-carboxamide]
